Values of other authors as cited in patent publication US20210290592A1, “COMPOSITION AND METHOD FOR OPIOID SPARING” (Zelira Therapeutics Operations Pty Ltd., priority 2018, published 2021).

Conditions: treatment group, 5 mg THC, n=105; 74 mg in control group, difference not statistically significant

CCCCCc1cc(O)c2c(c1)OC(C)(C)[C@@H]1CCC(C)=C[C@@H]21 [dronabinol]
Median dose of micro-opioid agonist piritramide in the two days post surgery: 54 mg
